“Also recorded” adds a separate entry of the source.
What was measured:
[1] = system: PHGDH; assay: PHGDH by western blot in MOLM13 cells treated in vitro; assay type: cell-based, human
Method: Western Blot, General Protocol: • For western blot analysis, cells were lysed on ice using NP-40 lysis buffer with protease- and phosphatase inhibitors. Total protein concentration in lysates was measured using a BCA protein assay kit following the manufacturers instructions. 10% NuPAGE® Bis-Tris precast gels were loaded with 30-50 μg of protein in each well diluted in sample buffer and antioxidant. A 1:1 mix of MagicMark™ XP Western Protein Standard (Invitrogen) and SeeBlue® Plus 2 Pre-Stained Standard was used as protein standard. Gels were run at 50V for 20 min, then at 100V for 1 h 30 min. Blotting was done on ice for 1 h 30 min at 100V onto PVDF (pre-activated with MeOH) or nitrocellulose membranes. Membranes were washed in TBS-0.1% Tween-20 (TBS-T), and blocked in TBS-T 5% BSA for at least 1 h at RT. Primary ABs were added at 1:1000 in TBS-T 5% BSA (rabbit-anti-actin AB was added at 1:2000) in TBS-T 5% BSA, and membranes were incubated over night at 4° C. Membranes were then washed 3× in TBS-T, and incubated in HRP-conjugated secondary ABs at 1:5000 dilution in TBS-T 5% milk for 45 min at RT. Membranes were developed for 1 min using ECL-reagents and imaged with chemiluminescence using a Molecular Imager ChemiDoc™ XRS (BioRad). • All incubation- and washing steps were done on a roller.

[2] = system: Mv4-11 cells; assay: IC50 of BGB324 by resazurin assay, Mv4-11; assay type: cell-based; settings: Homo sapiens, Mv4-11 (responder)
From the text: (§1) The diversity of AML cells and their responses was investigated using a panel of AML cell lines and assessing their responses after BGB324-treatment.

[3] = system: MOLM13 systemic xenograft; assay: Leukemic (CD33/CD45-positive) cells in MOLM13 systemic xenograft model; assay type: in vivo, mice; settings: 50 mg/kg for 4 days
Method: Material from an in vivo MOLM13 systemic model was also evaluated by flow cytometry. Expression of the previously evaluated biomarkers was examined in cells isolated from bone marrows and spleens of animals with systemic AML disease (MOLM13, inoculated for 7 days prior to treatment) treated with BGB324 at 50 mg/kg for 4 days. The spleens analysed were from the same study that was analysed by microarray, as mentioned above. The bone marrows were from an identical study that was done at a later time point to get more material for flow analyses.
Cells harvested from spleens, blood and bone marrows of the animals were stained with anti CD33 and CD45 antibodies, to determine if systemic disease was established. CD33/CD45-positive cells were found in spleens (around 10-15%), bone marrows (35-40%) and in the blood (2-6%) of the animals, confirming that the disease was established.

[4] = system: Kasumi cells; assay: IC50 of BGB324 by resazurin assay, Kasumi; assay type: cell-based; settings: Homo sapiens, Kasumi (non-responder)
From the text: as §1

[5] = system: total Axl; assay: Total Axl by flow cytometry in MOLM13 cells (Example 2); assay type: cell-based, human; settings: MOLM13 starved, 3 μM, 40 minutes
Method: Staining of Cells for Flow Cytometry, General Protocol: • Live cells were centrifuged at 300 G for 5 minutes, washed once with PBS and centrifuged again. Cells were then fixed in 4% PFA in PBS for 10 minutes at 37° C., and resuspended in PBS. Unless processed immediately, samples were at this point stored in PBS at 4° C. (up to three weeks) or at −80° C. (for long-term storage). If intracellular epitopes were stained, cells were permebealized in 90% MeOH for 30 minutes on ice. Unless processed immediately, samples were also be stored in 90% MeOH at −20° C. for up to two months. • Further staining procedure (permebealized or non-permebealized cells): • Cells were washed 1× in PBS and blocked in blocking buffer; either PBS+0.5% BSA or PBS+1:1000 Octagam (5 mg/ml) for 15 minutes at room temperature. Thereafter, cells were incubated with primary AB at the indicated dilutions in incubation buffer (IB, PBS+0.5% BSA) for 1 hour at room temperature. […] Cells were analyzed immediately, or stored for up to 24 hours at 4° C. before analysis. • Analysis of cells was done on a BD LSR Fortessa or a BD C6 Accuri flow cytometer, and further processing was done using FlowJo v.7.6. • All incubation steps (but not storage) were done on a spinning wheel or gentle shaker. […]

[6] = system: pPLCγ1; assay: pPLCγ1 in AML cell panel, short term treatment, flow cytometry; assay type: cell-based, human
Method: (§2) Staining of Cells for Flow Cytometry, General Protocol: • Live cells were centrifuged at 300 G for 5 minutes, washed once with PBS and centrifuged again. Cells were then fixed in 4% PFA in PBS for 10 minutes at 37° C., and resuspended in PBS. Unless processed immediately, samples were at this point stored in PBS at 4° C. (up to three weeks) or at −80° C. (for long-term storage). If intracellular epitopes were stained, cells were permebealized in 90% MeOH for 30 minutes on ice. Unless processed immediately, samples were also be stored in 90% MeOH at −20° C. for up to two months. • Further staining procedure (permebealized or non-permebealized cells): • Cells were washed 1× in PBS and blocked in blocking buffer; either PBS+0.5% BSA or PBS+1:1000 Octagam (5 mg/ml) for 15 minutes at room temperature. Thereafter, cells were incubated with primary AB at the indicated dilutions in incubation buffer (IB, PBS+0.5% BSA) for 1 hour at room temperature. Cells were then washed 3× with IB and incubated with secondary AB (conjugated to a fluorescent flurophore) at 1:1000 dilution in IB for 30 minutes at room temperature. Finally, cells were washed 3× in IB and resuspended in PBS. Cells were analyzed immediately, or stored for up to 24 hours at 4° C. before analysis. • Analysis of cells was done on a BD LSR Fortessa or a BD C6 Accuri flow cytometer, and further processing was done using FlowJo v.7.6. • All incubation steps (but not storage) were done on a spinning wheel or gentle shaker.
as §1
When investigating phospho-markers, the cells were starved overnight in the appropriate growth medium containing 0.1% FBS, pre-treated with BGB324 at 0.5 and 1 μM for one hour, and stimulated with 10% FBS for 20 minutes (to induce phosphorylation, with BGB324 present). Cells were then fixed and stained for flow cytometric analyses.

[7] = system: PHGDH; assay: Microarray analysis of xenograft material, PHGDH transcript; assay type: in vivo, mice
From the text: PHGDH was included in the biomarker panel following microarray analysis of Mv4-11 and MOLM13 xenograft material after BGB324-treatment.

[8] = system: totPHGDH; assay: Total PHGDH in AML cell panel, long-term treatment, flow cytometry; assay type: cell-based, human
Method: as §2, §1
(§3) Long-term treatment was done in complete medium, without starvation. The responders were treated with 0.05, 0.1 or 0.3 μM BGB324, whereas the non-responders were treated with only a single dose of 2.5 μM BGB324. The cells were fixed after 24, 48 or 72 hours, and the samples were stored in 90% MeOH at −20° C. until all samples were harvested, and stained for flow at the same time.

[9] = system: totSLFN11; assay: Total SLFN11 in AML cell panel, long-term treatment, flow cytometry; assay type: cell-based, human
Method: as §2, §1, §3

Which results are given for `Nc1nc(Nc2ccc3c(c2)CC[C@@H](N2CCCC2)CC3)nn1-c1cc2c(nn1)-c1ccccc1CCC2` [BGB324, 1-(6,7-dihydro-5H-benzo[6,7]cyclohepta[1,2-c]pyridazin-3-yl)-N3-((7-(S)-pyrrolidin-1-yl)-6,7,8,9-tetrahydro-5H-benzo[7]annulene-2-yl)-1H-1,2,4-triazole-3,5-diamine]?
PHGDH by western blot ([1]; 2 uM, time-course of 3-7 hours): did not see reduction of PHGDH; PHGDH by western blot ([1]; 0.3 and 0.6 uM, three days): did not see reduction of PHGDH; IC50 [2]: 140 nM; percentage of leukemic cells vs. vehicle-treated mice ([3]; blood): significantly higher percentage of leukemic cells; percentage of leukemic cells vs. vehicle-treated mice ([3]; bone marrows): no significant differences; percentage of leukemic cells vs. vehicle-treated mice ([3]; spleens): no significant differences; IC50 [4]: 1200 nM; Total Axl expression [5]: did not change; pPLCγ ([6]; Kasumi, 1 hour): No response in PLCγ; pPLCγ ([6]; MOLM13, all treatment doses, 1 hour): significantly reduced; pPLCγ ([6]; Mv4-11, all treatment doses, 1 hour): significantly reduced; pPLCγ ([6]; OCI-M1, 1 hour): No response in PLCγ; PHGDH transcript (microarray) ([7]; MOLM13 systemic xenograft model, spleen and bone marrow): significantly downregulated; also recorded: significantly reduced; PHGDH transcript (microarray) ([7]; Mv4-11 subcutaneous xenograft, 14 days of treatment): one of the most significantly downregulated transcripts; also recorded: significantly downregulated; PHGDH transcript alteration after treatment (microarray) ([7]; both Mv4-11 subcutaneous and MOLM13 systemic xenograft models): more than 1.5 fold; PHGDH expression ([8]; Kasumi, 2.5 μM, significant at 24 hours): increase in PHGDH expression; total protein expression of PHGDH ([8]; MOLM13, 24, 48 and 72 hours): no significant changes; total protein expression of PHGDH ([8]; Mv4-11, 0.3 uM, 24 and 72 hours): significant reduction of PHGDH; PHGDH expression ([8]; OCI-AML5, 2.5 μM, significant in all time points): increase in PHGDH expression; SLFN11 expression ([9]; Kasumi, 2.5 μM, 24 and 48 hours): no significant differences; SLFN11 expression ([9]; Kasumi, 2.5 μM, 72 hours): significant increase of SLFN11 expression; total protein expression of SLFN11 ([9]; MOLM13, 0.3 μM, 24, 48 and 72 hours): significant reduction; total protein expression of SLFN11 ([9]; Mv4-11, 0.1 uM, 72 hours): significantly reduced; total protein expression of SLFN11 ([9]; Mv4-11, 0.3 μM, 24, 48 and 72 hours): significant reduction; SLFN11 expression ([9]; OCI-AML5, 2.5 μM, 24 and 48 hours): no significant differences; SLFN11 expression ([9]; OCI-AML5, 2.5 μM, 72 hours): significant increase of SLFN11 expression
